From patent US5462927A, “Peptides aiding nerve regeneration” (The Administrators of the Tulane Educational Fund, priority 1992, dated 1995)
Square brackets hold non-standard residues; d marks the D form. Peptide text beside a SMILES is read from it.

Tests used:
Format in all cases: in vivo, rat
crushed sciatic nerve = test: Sensorimotor function test (sciatic nerve regeneration assay, foot-flick response to thermal pain); settings: s.c. every 24 hr for approximately 20-25 days; head prints only 'μG/24 HRS'; vs 0.9% NaCl control
Protocol: Female, Sprague-Dawley rats (Charles River Breeding Labs) were used at an age of 7-8 weeks (120-140 g). Under ether anesthesia, the right sciatic nerve was carefully exposed and crushed with constant pressure, hemostatic forceps for 30 sec prior to closure and suturing of the incision. After surgery, the animals were randomly assigned to treatment groups of 10. The test peptides were administered s.c. in 0.9% NaCl in a vol of 0.1 ml. NaCl (0.9%) served as the control. Injections were started immediately after surgery and given every 24 hr thereafter for approximately 20-25 days. The criterion of sciatic nerve regeneration was based on the recovery of the foot-flick response to thermal pain. Beginning 48 hr after surgery, the rats were tested five days a week for the ability to withdraw, from a heat source, the paw innervated by the crushed nerve. All sensorimotor testing was performed between 1:00 and 3:00 p.m. Specifically, the rat was immobilized by wrapping in a towel, and the sole of the lesioned limb was placed over the aperture of a modified d'Amour apparatus. The time required to withdraw the foot was recorded to the nearest 0.1 of sec using a digital stopwatch. If no response occurred by 5 sec, the test was terminated to avoid tissue damage. The observe measuring the foot-flick response was blind to the treatment group being tested. All animals were acclimatized to the testing procedure prior to surgery. Baseline values were obtained by determining the response time for the unlesioned limb.

[1] = tested on: sectioned sciatic nerve; common extensor muscle of the finger; test: Characteristics of a single pulse of the common extensor muscle after sciatic nerve section; settings: for Single Pulse: Contraction Time / Single Pulse: Half-Relaxation Time / Single Pulse: Latence / Single Pulse: Muscle Strength Normalized to Muscle Weight / Single Pulse: Speed of Contraction / Single Pulse: Speed of Relaxation / Single Pulse: Strength: 35d. p.o.p.
crushed peroneal nerve = test: Walking test (locomotor pattern, toespread) after peroneal nerve crush
Protocol: The effect of BIM-22015 regeneration of the crushed peroneal nerve in the rat was assessed using both morphological and physiological studies, as follows. Both locomotor pattern and endplate morphology during the early stages of crushed nerve regeneration were assessed after treatment with BIM-220150 Adult Sprague-Dawley male rats (Taconic Farms) were maintained at 25° C. on a 12 hour light and a 12 hour dark cycle and were supplied with standard rat chow and water ad lib. All surgery was performed under anesthesia with 8% chlorohydrate (0.6 ml/100 g I.P.). Denervation was accomplished using a #5 Dumont forceps with a uniformly filed tip to crush the peroneal nerve. This crush produced a 1 mm wide lesion just proximal to the EDL (extention digitarum longus) muscle. The wound was closed with surgical staples. Following surgery, the animal was immediately administered saline or BIM-22015 in one of the following dosages: (1) 0.9% saline, (2) 10.0 ug BIM-22015, (3) 5.0 ug BIM-22015, (3) 1.0 ug BIM-22015, or (4) 0.1 ug BIM-22015 (per animal). Administration continued once every 48 hours for 5 days; on day 5, the rats were killed and tissues taken for morphological analysis. All injections and surgeries occurred between 10:00 and 12:00 noon.
Locomotor pattern was tested by measuring the walking pattern of the animal. The animal was allowed to walk up a 20° inclined platform. The track was well-lit by fluorescent tubes and a dark box was placed at the end of the track. This dark and light differences was used to entice the animal to walk up the track. […] The distance between the first and fifth digit was determined using a Manostat mechanical caliper (type 6911) with accuracy of ±0.005 mm0 The contralateral foot was used as a control to negate the size differences in individual animals. The Student T test was used to determine the statistical differences, and data were expressed as means of the six sharpest toespreads and the standard error of the mean (using 95% confidence formula), standard deviation, and variances.

[2] = Group 3 (topical in tissucol, lower dose)
[3] = Group 4 (s.c. 5ug.kg.day for 18 days)

Structure (SMILES): C[C@@H](N)C(=O)N[C@@H](CCC(N)=O)C(=O)N[C@@H](Cc1ccc(O)cc1)C(=O)N[C@@H](Cc1ccccc1)C(=O)N[C@@H](CCCNC(=N)N)C(=O)N[C@@H](Cc1c[nH]c2ccccc12)C(=O)NCC(N)=O [BIM-22015, D--Ala--Gln--Tyr--Phe--Arg--Trp--Gly--NH2] (H-[dA]QYFRWG-NH2)
- % Reduction of Recovery Time (crushed sciatic nerve): 28%
- Single Pulse: Contraction Time ([1]; Group 2 (topical in tissucol)): 28.86 ms
- Single Pulse: Half-Relaxation Time ([1]; Group 2 (topical in tissucol)): 64.69 ms
- Single Pulse: Latence ([1]; Group 2 (topical in tissucol)): 9.93 ms
- Single Pulse: Muscle Strength Normalized to Muscle Weight ([1]; Group 2 (topical in tissucol)): 0.30 g/µg
- Single Pulse: Speed of Contraction ([1]; Group 2 (topical in tissucol)): 2419 g/ms
- Single Pulse: Speed of Relaxation ([1]; Group 2 (topical in tissucol)): 514 g/ms
- Single Pulse: Strength ([1]; Group 2 (topical in tissucol)): 20.03 g
- Single Pulse: Contraction Time [1, 2]: 16.37 ms
- Single Pulse: Half-Relaxation Time [1, 2]: 40.93 ms
- Single Pulse: Latence [1, 2]: 7.65 ms
- Single Pulse: Muscle Strength Normalized to Muscle Weight [1, 2]: 0.25 g/µg
- Single Pulse: Speed of Contraction [1, 2]: 2939 g/ms
- Single Pulse: Speed of Relaxation [1, 2]: 593 g/ms
- Single Pulse: Strength [1, 2]: 14.96 g
- Single Pulse: Contraction Time [1, 3]: 27.68 ms
- Single Pulse: Half-Relaxation Time [1, 3]: 60.72 ms
- Single Pulse: Latence [1, 3]: 9.48 ms
- Single Pulse: Speed of Contraction [1, 3]: 2420 g/ms
- Single Pulse: Speed of Relaxation [1, 3]: 635 g/ms
- Single Pulse: Strength [1, 3]: 26.45 g
- improvement of muscle strength over control group 1 (column 1, Table 4) ([1]; Group 4 (s.c.), p=0.05): 28%
- improvement of speed of muscle contraction compared to group 1 (column 3, Table 4) ([1]; group 4 (s.c.), p=0.01): 300%
- speed of relaxation compared to group 1 (column 4, Table 4) ([1]; printed as group 5): dramatically improved
- recovery rate of locomotion (walking test) (crushed peroneal nerve; 0.1 μg per animal, once every 48 hours, days 3-5 after surgery, not statistically significant): very consistent upward recovery rate
- optimal dosage (walking test) (crushed peroneal nerve; dosages 0.1-10.0 ug per animal compared): 0.1 µg
- recovery rate of locomotion (walking test) (crushed peroneal nerve; the other dosages (above 0.1 μg) vs saline control): outperformed the saline control animal but only by a slight margin
